Earlier results as cited in patent publication US20110287061A1 (priority 2010, published 2011).

Assays:
gray hair [1] = details: of 20 patients taking varying amounts daily for other conditions
gray hair [2] = details: 50 patients with gray hair, daily administration for two months
hair loss = details: administered together with Saw Palmetto; individuals with mild to moderate hair loss

| Structure (SMILES) | cases of dramatic hair color change and hair re-growth (gray hair [1]) [cases] | hair colour change (gray hair [2]) | hair growth (hair loss) |
| --- | --- | --- | --- |
| Nc1ccc(C(=O)O)cc1 [PABA, 4-aminobenzoic acid] | 5 | marked darkening of the hair |  |
| CC[C@H](CC[C@@H](C)[C@H]1CC[C@H]2[C@@H]3CC=C4C[C@@H](O)CC[C@]4(C)[C@H]3CC[C@]12C)C(C)C [beta-sitosterol] |  |  | healthy hair growth |
